Data taken from PubChem BioAssay AID2060891 (Molecular Pharmacology Branch, DTP, NCI, 2025).
pIC50: −log10 of the molar value. One block for each molecule: values may come before it.

System: K98450-129-R-PDC complex spheroid growth, percent test/control
Test: Anticancer human tumor K98450-129-R-PDC patient-derived colon adenocarcinoma cell line growth inhibition [RAS]
Details: for pIC50: curve of first compound; for viability, T/C: stronger effect = lower value
Procedure, shortened: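 Tumour cells grown as complex spheroids with HUVEC endothelial cells and mesenchymal stem cells, treated with RAS pathway inhibitor combinations. Each agent spans half-log steps from near clinical Cmax, or 10 microM where Cmax is unknown.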

[1] = second compound 0.00316 µM, first compound 0.00316 µM
[2] = second compound 0.00316 µM, first compound 0.01 µM
[3] = second compound 0.00316 µM, first compound 0.0316 µM
[4] = second compound 0.00316 µM, first compound 0.1 µM
[5] = second compound 0.00316 µM, first compound 0.316 µM
[6] = second compound 0.00316 µM, first compound 1 µM
[7] = second compound 0.01 µM, first compound 0.00316 µM
[8] = second compound 0.01 µM, first compound 0.01 µM
[9] = second compound 0.01 µM, first compound 0.0316 µM
[10] = second compound 0.01 µM, first compound 0.1 µM
[11] = second compound 0.01 µM, first compound 0.316 µM
[12] = second compound 0.01 µM, first compound 1 µM
[13] = second compound 0.0316 µM, first compound 0.00316 µM
[14] = second compound 0.0316 µM, first compound 0.01 µM
[15] = second compound 0.0316 µM, first compound 0.0316 µM
[16] = second compound 0.0316 µM, first compound 0.1 µM
[17] = second compound 0.0316 µM, first compound 0.316 µM
[18] = second compound 0.0316 µM, first compound 1 µM
[19] = second compound 0.1 µM, first compound 0.00316 µM
[20] = second compound 0.1 µM, first compound 0.01 µM
[21] = second compound 0.1 µM, first compound 0.0316 µM
[22] = second compound 0.1 µM, first compound 0.1 µM
[23] = second compound 0.1 µM, first compound 0.316 µM
[24] = second compound 0.1 µM, first compound 1 µM
[25] = second compound 0.316 µM, first compound 0.00316 µM
[26] = second compound 0.316 µM, first compound 0.01 µM
[27] = second compound 0.316 µM, first compound 0.0316 µM
[28] = second compound 0.316 µM, first compound 0.1 µM
[29] = second compound 0.316 µM, first compound 0.316 µM
[30] = second compound 0.316 µM, first compound 1 µM
[31] = second compound 1 µM, first compound 0.00316 µM
[32] = second compound 1 µM, first compound 0.01 µM
[33] = second compound 1 µM, first compound 0.0316 µM
[34] = second compound 1 µM, first compound 0.1 µM
[35] = second compound 1 µM, first compound 0.316 µM
[36] = second compound 1 µM, first compound 1 µM
[37] = second compound 0.00316 µM, first compound 3.16 µM
[38] = second compound 0.00316 µM, first compound 10 µM
[39] = second compound 0.01 µM, first compound 3.16 µM
[40] = second compound 0.01 µM, first compound 10 µM
[41] = second compound 0.0316 µM, first compound 3.16 µM
[42] = second compound 0.0316 µM, first compound 10 µM
[43] = second compound 0.1 µM, first compound 3.16 µM
[44] = second compound 0.1 µM, first compound 10 µM
[45] = second compound 0.316 µM, first compound 3.16 µM
[46] = second compound 0.316 µM, first compound 10 µM
[47] = second compound 1 µM, first compound 3.16 µM
[48] = second compound 1 µM, first compound 10 µM
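Further: spheroids exposed to agents for seven days before the viability readout.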
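Wherever viability, T/C is given: luminescence used as a proxy for viable cell amount.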

SMILES: CC(C)NCC(C(=O)N1CCN(c2ncnc3c2C(C)CC3O)CC1)c1ccc(Cl)cc1 (stereo not given) + C=CC(=O)N1CCN(c2nc(OCC3CCCN3C)nc3c(F)c(-c4nc(N)cc(C)c4C(F)(F)F)c(Cl)cc23)C(C)C1
pIC50 (second compound 0.00316 µM): < 5.00
pIC50 (second compound 0.01 µM): < 5.00
pIC50 (second compound 0.0316 µM): < 5.00
pIC50 (second compound 0.1 µM): < 5.00
pIC50 (second compound 0.316 µM): > 7.50
pIC50 (second compound 1 µM): > 7.50
viability, T/C [3]: 94.4%
viability, T/C [4]: 97.7%
viability, T/C [5]: 94.8%
viability, T/C [6]: 93.2%
viability, T/C [37]: 91.4%
viability, T/C [38]: 91.2%
viability, T/C [9]: 89.3%
viability, T/C [10]: 81.3%
viability, T/C [11]: 85.1%
viability, T/C [12]: 84.6%
viability, T/C [39]: 83.8%
viability, T/C [40]: 85.3%
viability, T/C [15]: 70%
viability, T/C [16]: 63.7%
viability, T/C [17]: 65.9%
viability, T/C [18]: 67.3%
viability, T/C [41]: 75%
viability, T/C [42]: 75.5%
viability, T/C [21]: 53.1%
viability, T/C [22]: 52.5%
viability, T/C [23]: 53.7%
viability, T/C [24]: 57%
viability, T/C [43]: 54.8%
viability, T/C [44]: 49.6%
viability, T/C [27]: 38.3%
viability, T/C [28]: 42.1%
viability, T/C [29]: 41%
viability, T/C [30]: 43.7%
viability, T/C [45]: 42.6%
viability, T/C [46]: 36.4%
viability, T/C [33]: 31.4%
viability, T/C [34]: 32.7%
viability, T/C [35]: 35.9%
viability, T/C [36]: 32.1%
viability, T/C [47]: 32.7%
viability, T/C [48]: 29%

SMILES: CC(C)n1nc(-c2ccc3oc(N)nc3c2)c2c(N)ncnc21 + C=CC(=O)N1CCN(c2nc(OCC3CCCN3C)nc3c(F)c(-c4nc(N)cc(C)c4C(F)(F)F)c(Cl)cc23)C(C)C1
pIC50 (second compound 0.00316 µM): < 7.00
pIC50 (second compound 0.01 µM): < 7.00
pIC50 (second compound 0.0316 µM): 7.75
pIC50 (second compound 0.1 µM): 8.82
pIC50 (second compound 0.316 µM): > 9.50
pIC50 (second compound 1 µM): > 9.50
viability, T/C (second compound 0.00316 µM, first compound 0.000316 µM): 90.9%
viability, T/C (second compound 0.00316 µM, first compound 0.001 µM): 85.2%
viability, T/C [1]: 87.9%
viability, T/C [2]: 82.4%
viability, T/C [3]: 76.5%
viability, T/C [4]: 56.9%
viability, T/C (second compound 0.01 µM, first compound 0.000316 µM): 75.9%
viability, T/C (second compound 0.01 µM, first compound 0.001 µM): 78.9%
viability, T/C [7]: 75%
viability, T/C [8]: 70%
viability, T/C [9]: 61.2%
viability, T/C [10]: 51.6%
viability, T/C (second compound 0.0316 µM, first compound 0.000316 µM): 70.2%
viability, T/C (second compound 0.0316 µM, first compound 0.001 µM): 58.8%
viability, T/C [13]: 62.3%
viability, T/C [14]: 52.3%
viability, T/C [15]: 47.1%
viability, T/C [16]: 40.5%
viability, T/C (second compound 0.1 µM, first compound 0.000316 µM): 54.7%
viability, T/C (second compound 0.1 µM, first compound 0.001 µM): 51%
viability, T/C [19]: 46.1%
viability, T/C [20]: 44.3%
viability, T/C [21]: 33.9%
viability, T/C [22]: 27.2%
viability, T/C (second compound 0.316 µM, first compound 0.000316 µM): 38.8%
viability, T/C (second compound 0.316 µM, first compound 0.001 µM): 37%
viability, T/C [25]: 33.1%
viability, T/C [26]: 30.9%
viability, T/C [27]: 25.7%
viability, T/C [28]: 20.1%
viability, T/C (second compound 1 µM, first compound 0.000316 µM): 29.1%
viability, T/C (second compound 1 µM, first compound 0.001 µM): 27.5%
viability, T/C [31]: 33.5%
viability, T/C [32]: 25%
viability, T/C [33]: 21.4%
viability, T/C [34]: 17.6%

SMILES: CC(Nc1ccc2c(c1)OCCn1cc(N3C(=O)OCC3C(F)F)nc1-2)C(N)=O (stereo not given) + C=CC(=O)N1CCN(c2nc(OCC3CCCN3C)nc3c(F)c(-c4nc(N)cc(C)c4C(F)(F)F)c(Cl)cc23)C(C)C1
pIC50 (second compound 0.00316 µM): < 5.00
pIC50 (second compound 0.01 µM): < 5.00
pIC50 (second compound 0.0316 µM): 5.34
pIC50 (second compound 0.1 µM): 7.13
pIC50 (second compound 0.316 µM): > 7.50
pIC50 (second compound 1 µM): > 7.50
viability, T/C [3]: 92.5%
viability, T/C [4]: 90.4%
viability, T/C [5]: 81.7%
viability, T/C [6]: 83.1%
viability, T/C [37]: 70%
viability, T/C [38]: 64.3%
viability, T/C [9]: 85.4%
viability, T/C [10]: 81.2%
viability, T/C [11]: 78.5%
viability, T/C [12]: 65.1%
viability, T/C [39]: 59.8%
viability, T/C [40]: 53.8%
viability, T/C [15]: 69.5%
viability, T/C [16]: 70.3%
viability, T/C [17]: 62.7%
viability, T/C [18]: 51.4%
viability, T/C [41]: 53.7%
viability, T/C [42]: 46.9%
viability, T/C [21]: 53.9%
viability, T/C [22]: 47.4%
viability, T/C [23]: 45%
viability, T/C [24]: 39%
viability, T/C [43]: 32.5%
viability, T/C [44]: 28.8%
viability, T/C [27]: 35.4%
viability, T/C [28]: 32.5%
viability, T/C [29]: 31.6%
viability, T/C [30]: 22.4%
viability, T/C [45]: 22.9%
viability, T/C [46]: 16.6%
viability, T/C [33]: 28.4%
viability, T/C [34]: 28.2%
viability, T/C [35]: 23.5%
viability, T/C [36]: 18%
viability, T/C [47]: 15.3%
viability, T/C [48]: 14.5%

Continued by rising pIC50 (second compound 0.00316 µM), values first:

pIC50 (second compound 0.00316 µM): 6.71
pIC50 (second compound 0.01 µM): 6.82
pIC50 (second compound 0.0316 µM): 7.27
pIC50 (second compound 0.1 µM): 7.98
pIC50 (second compound 0.316 µM): > 8.50
pIC50 (second compound 1 µM): > 8.50
SMILES: C=CC(=O)Nc1cc(Nc2nccc(-c3cn(C)c4ccccc34)n2)c(OC)cc1N(C)CCN(C)C + C=CC(=O)N1CCN(c2nc(OCC3CCCN3C)nc3c(F)c(-c4nc(N)cc(C)c4C(F)(F)F)c(Cl)cc23)C(C)C1
viability, T/C [1]: 93.5%
viability, T/C [2]: 85.9%
viability, T/C [3]: 91%
viability, T/C [4]: 83.5%
viability, T/C [5]: 25.5%
viability, T/C [6]: 9.6%
viability, T/C [7]: 94.4%
viability, T/C [8]: 78%
viability, T/C [9]: 85.2%
viability, T/C [10]: 71.3%
viability, T/C [11]: 11.4%
viability, T/C [12]: 8.81%
viability, T/C [13]: 70.3%
viability, T/C [14]: 70.4%
viability, T/C [15]: 63.6%
viability, T/C [16]: 34.3%
viability, T/C [17]: 9.39%
viability, T/C [18]: 8.93%
viability, T/C [19]: 56.3%
viability, T/C [20]: 47.9%
viability, T/C [21]: 38.7%
viability, T/C [22]: 17.6%
viability, T/C [23]: 8.42%
viability, T/C [24]: 8.07%
viability, T/C [25]: 39%
viability, T/C [26]: 34.4%
viability, T/C [27]: 29.3%
viability, T/C [28]: 13.7%
viability, T/C [29]: 10.3%
viability, T/C [30]: 9.33%
viability, T/C [31]: 30.4%
viability, T/C [32]: 27.1%
viability, T/C [33]: 22.6%
viability, T/C [34]: 13.8%
viability, T/C [35]: 10.9%
viability, T/C [36]: 9.84%

pIC50 (second compound 0.00316 µM): 6.78
pIC50 (second compound 0.01 µM): 6.88
pIC50 (second compound 0.0316 µM): 6.97
pIC50 (second compound 0.1 µM): 8.05
pIC50 (second compound 0.316 µM): > 8.50
pIC50 (second compound 1 µM): > 8.50
SMILES: O=C(c1ccc(F)c(F)c1Nc1ccc(I)cc1F)N1CC(O)([C@@H]2CCCCN2)C1 + C=CC(=O)N1CCN(c2nc(OCC3CCCN3C)nc3c(F)c(-c4nc(N)cc(C)c4C(F)(F)F)c(Cl)cc23)C(C)C1
viability, T/C [1]: 91.1%
viability, T/C [2]: 96.7%
viability, T/C [3]: 87.9%
viability, T/C [4]: 78.3%
viability, T/C [5]: 13.7%
viability, T/C [6]: 2.87%
viability, T/C [7]: 86.3%
viability, T/C [8]: 77.6%
viability, T/C [9]: 81.8%
viability, T/C [10]: 63.1%
viability, T/C [11]: 9.42%
viability, T/C [12]: 3.09%
viability, T/C [13]: 72.8%
viability, T/C [14]: 64.5%
viability, T/C [15]: 63.2%
viability, T/C [16]: 52.5%
viability, T/C [17]: 7.27%
viability, T/C [18]: 2.63%
viability, T/C [19]: 55.2%
viability, T/C [20]: 47.6%
viability, T/C [21]: 39%
viability, T/C [22]: 22.6%
viability, T/C [23]: 5.51%
viability, T/C [24]: 2.39%
viability, T/C [25]: 34.2%
viability, T/C [26]: 34.2%
viability, T/C [27]: 21.5%
viability, T/C [28]: 10.9%
viability, T/C [29]: 4.66%
viability, T/C [30]: 2.41%
viability, T/C [31]: 27.9%
viability, T/C [32]: 24.1%
viability, T/C [33]: 16.3%
viability, T/C [34]: 9.12%
viability, T/C [35]: 5%
viability, T/C [36]: 2.46%
